# Results: patent US11970523B2 (priority 2018, dated 2024)
# Experiment: Weight gain slowing test
# Type: in vivo, Male C57bl/6 mice
# Settings: high-fat fed mice, 50 nmol/kg every day for 56 days
# Method: (§1) Male C57bl/6 mice were fed with high-fat feed for 4 weeks. The mice with body weights greater than 30 g were selected for the test, and were randomly divided into 26 groups, 8 mice per group. […] Fasting body weights of each group of mice on Day 1 and Day 56 were tested, and the average body weight change of each group of mice was examined.
# as §1, with “7” for “26”
# as §1, with “8” for “26”
substance,measurement,setting,value
"Oxyntomodulin [OXM, reference compound]","fasting body weight, Day 1","Table 3, in g (unit assumed)",32.5 ± 0.7
same,"fasting body weight, Day 56","Table 3, in g (unit assumed)",40.3 ± 1.3
same,"fasting body weight, Day 1","Table 5, in g (unit assumed)",31.0 ± 0.8
same,"fasting body weight, Day 56","Table 5, in g (unit assumed)",41.0 ± 0.7
same,"fasting body weight, Day 1","Table 7, in g (unit assumed)",30.5 ± 0.6
same,"fasting body weight, Day 56","Table 7, in g (unit assumed)",39.6 ± 1.3
same,"fasting body weight, Day 1","Table 9, in g (unit assumed)",31.9 ± 0.6
same,"fasting body weight, Day 56","Table 9, in g (unit assumed)",42.1 ± 1.3
same,"fasting body weight, Day 56",Table 11,43.3±
same,"fasting body weight, Day 1","Table 11, in g (unit assumed)",32.7
